Data taken from patent US20240150294A1, “ESTROGEN RECEPTOR ALPHA ANTAGONISTS AND USES THEREOF” (The University of Chicago, priority 2021, published 2024).

molecular target: T1, ERα (Homo sapiens, UniProt P03372); test: Transcriptional reporter gene assay (estrogen response element-GFP) in MCF7 cells; assay type: cell-based; conditions: ERE-controlled green fluorescent protein, reduction in fluorescence
T1 construct: endogenous in cells; host or cells: MCF7
T1 sequence (P03372 1-595): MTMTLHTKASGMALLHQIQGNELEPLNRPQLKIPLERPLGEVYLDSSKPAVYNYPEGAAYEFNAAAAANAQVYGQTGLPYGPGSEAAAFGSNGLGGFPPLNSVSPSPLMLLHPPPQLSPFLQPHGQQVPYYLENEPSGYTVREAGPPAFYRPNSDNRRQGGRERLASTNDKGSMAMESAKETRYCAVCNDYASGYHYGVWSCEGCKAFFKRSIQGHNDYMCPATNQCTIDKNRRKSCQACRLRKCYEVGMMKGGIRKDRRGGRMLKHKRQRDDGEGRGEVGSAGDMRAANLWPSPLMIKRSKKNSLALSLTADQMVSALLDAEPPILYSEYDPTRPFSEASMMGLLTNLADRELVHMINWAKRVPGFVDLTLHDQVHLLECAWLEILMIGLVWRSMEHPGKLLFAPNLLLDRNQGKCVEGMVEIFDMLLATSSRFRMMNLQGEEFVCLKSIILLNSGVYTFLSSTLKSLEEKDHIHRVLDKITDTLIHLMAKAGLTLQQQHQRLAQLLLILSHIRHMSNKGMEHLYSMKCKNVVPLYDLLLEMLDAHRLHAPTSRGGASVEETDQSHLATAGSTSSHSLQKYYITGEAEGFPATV
Protocol: The reduction in fluorescence was measured and the IC50 value (nM) was determined for various compounds of formula (I) in comparison to known antagonists.

| Compound | IC50 [nM] |
| --- | --- |
| CC1CCN(CCOc2ccc(C3c4ccc(O)cc4CC4(CC4)N3C(=O)c3ccccc3)cc2)C1 (mixture of isomers) [Compound 16] | 3.85 |
| CCN1CCC(Oc2ccc(C3c4ccc(O)cc4CC4(CC4)N3C(=O)c3ccccc3)cc2)C1 (stereo not drawn) [Compound 12] | 58.8 |
| C[C@H]1CCN(CCOc2ccc(C3c4ccc(O)cc4CC4(CC4)N3C(=O)c3ccccc3)cc2)C1 (stereo partly drawn) [Compound 15] | 4.8 |
| CCN1CCC(CCOc2ccc(C3c4ccc(O)cc4CC4(CC4)N3C(=O)c3ccccc3)cc2)C1 (stereo not drawn) [Compound 13] | 21 |
| CCCN1CC(Oc2ccc(C3c4ccc(O)cc4CC4(CC4)N3C(=O)c3ccccc3)cc2)C1 (stereo not drawn) [Compound 2] | 130 |
| CCN1CC(Oc2ccc(C3c4ccc(O)cc4CC4(CC4)N3C(=O)c3ccccc3)cc2)C1 (stereo not drawn) [Compound 1] | 358 |
| O=C(c1ccccc1)N1C(c2ccc(OCCN3CCCCCC3)cc2)c2ccc(O)cc2CC12CC2 (stereo not drawn) [Compound 5] | 49.4 |
| CN(C)CCOc1ccc(C2c3ccc(O)cc3CC3(CC3)N2C(=O)c2ccccc2)cc1 (stereo not drawn) [Compound 19] | 744 |
| CC1=C(c2ccc(O)cc2)[C@H](c2ccc(OCCN3CC[C@@H](C)C3)cc2)Oc2cc(O)ccc21 [OP1074, reference compound] | 0.17 |
| CCCN1CCC(COc2ccc(C3c4ccc(O)cc4CC4(CC4)N3C(=O)c3ccccc3)cc2)C1 (stereo not drawn) [Compound 14] | 19 |
| CNCCOc1ccc(C2c3ccc(O)cc3CC3(CC3)N2C(=O)c2ccccc2)cc1 (stereo not drawn) [Compound 20] | 500 |
| O=C(c1ccccc1)N1C(c2ccc(OCCN3CCCCC3)cc2)c2ccc(O)cc2CC12CC2 (stereo not drawn) [Compound 6] | 23.4 |
| CCNCCOc1ccc(C2c3ccc(O)cc3CC3(CC3)N2C(=O)c2ccccc2)cc1 (stereo not drawn) [Compound 21] | 222 |

system: MCF7 breast cancer cells; test: Cellular proliferation of MCF7 breast cancer cells, 150 hours; assay type: cell-based; conditions: 1 nM E2 + 1 μM compound, serum-starved 48 hours
Protocol: The abilities of exemplary compounds of formula (I) to inhibit the cellular proliferation of MCF7 breast cancer cells were measured. Cells were serum-starved for 48 hours before they were treated with either vehicle (DMSO), 1 nM hormone (estradiol [E2]), or 1 nM E2+1 μM compound in triplicate for 150 hours.

| Compound | anti-proliferative activities (fold-change in cell count versus starting cell count) |
| --- | --- |
| O=C(c1ccccc1)N1C(c2ccc(OCC3CCN(CCCF)C3)cc2)c2ccccc2CC12CC2 (stereo not drawn) [Compound 34] | ablated anti-proliferative activities |
| O=C(c1ccccc1)N1C(c2ccc(CCC3CCN(CCCF)C3)cc2)c2ccc(O)cc2CC12CC2 (stereo not drawn) [Compound 25] | reduced anti-proliferative activities compared to compound 14 |
| CCCN1CC(COc2ccc(C3c4ccc(O)cc4CC4(CC4)N3C(=O)c3ccccc3)cc2)C1 (stereo not drawn) [Compound 4] | improved anti-proliferative activities compared to an ethylazetidine |
| CCCCN1CCC(COc2ccc(C3c4ccc(O)cc4CC4(CC4)N3C(=O)c3ccccc3)cc2)C1 (stereo not drawn) [Compound 22] | did not enhance anti-proliferative activities compared to compound 14 |
| CCCN1CCC(CNc2ccc(C3c4ccc(O)cc4CC4(CC4)N3C(=O)c3ccccc3)cc2)C1 (stereo not drawn) [Compound 26] | reduced anti-proliferative activities compared to compound 14 |
| CC1Cc2cc(O)ccc2C(c2ccc(OC[C@H]3CCN(CCCF)C3)cc2)N1C(=O)c1ccccc1 (stereo partly drawn) [35(S)] | modestly reduced the anti-proliferative activities compared compound 29 |
| CCCN1CCC(CSc2ccc(C3c4ccc(O)cc4CC4(CC4)N3C(=O)c3ccccc3)cc2)C1 (stereo not drawn) [Compound 27] | did not show an appreciable difference in anti-proliferative activities compared to compound 14 |
| CC1Cc2cc(O)ccc2C(c2ccc(OCC3CCN(CCCF)C3)cc2)N1C(=O)c1ccccc1 [35(R)] | modestly reduced the anti-proliferative activities compared compound 29 |
| CCCCCN1CCC(COc2ccc(C3c4ccc(O)cc4CC4(CC4)N3C(=O)c3ccccc3)cc2)C1 (stereo not drawn) [Compound 23] | did not enhance anti-proliferative activities compared to compound 14 |
| O=C(c1ccccc1)N1C(c2ccc(OCC3CCN(CCCF)C3)cc2)c2ccc(O)cc2CC12CC2 (stereo not drawn) [Compound 29] | enhanced anti-proliferative activities |
| CCCN1CCC(CCc2ccc(C3c4ccc(O)cc4CC4(CC4)N3C(=O)c3ccccc3)cc2)C1 (stereo not drawn) [Compound 24] | reduced anti-proliferative activities compared to compound 14 |

system: halo-ERα; test: ERα cellular stability, live-cell halo-ERα assay in T47D breast cancer cells; assay type: cell-based; conditions: 0 to 10 μM, 24 hours
Protocol: T47D breast cancer cell lines were generated with stable Tet-ON wild type (WT), Y537S mutation, or D538G halo-ERα mutation and enriched through flow sorting. Cells were cultured for 48 hours in media supplemented with charcoal-stripped fetal bovine serum (FBS) in puromycin. Subsequently, 1 μg/mL doxycycline was added to induce expression and 1 μM G618 antibody was added to follow the expression of the halo-tagged proteins. Cells were then treated with increasing concentrations of a compound of interest between 0 and 10 μM for 24 hours. After treatment, cells were imaged using an INUCYTE™ S3 (Essen BioScience, Ann Arbor, MI). ERα degradation was quantified by using the red channel integrated intensity per image normalized to phase channel confluence area.
Tissue specific activities often correlate with a molecule's influence on ERα levels.

| Compound | influence on ERα levels (SERM-like / SERD-like profile) |
| --- | --- |
| CCN1CC(Oc2ccc(C3c4ccc(O)cc4CC4(CC4)N3C(=O)c3ccccc3)cc2)C1 (stereo not drawn) [Compound 1] | weak SERD-like profile |

system: MCF7 breast cancer cells; test: Crystal violet endpoint assay of MCF7 cellular viability; assay type: cell-based; conditions: 500 nM, in the presence of 1 nM E2, 1 week
Text: A crystal violet endpoint assay is useful for obtaining quantitative information about the relative density of cells adhering to multi-well cluster dishes. The crystal violet dye stains DNA. Upon solubilization, the amount of dye taken up by the monolayer can be quantified in a spectrophotometer or plate reader when the absorbance of each well is read at 570 nm. A crystal violet assay kit to measure cell viability is commercially available (e.g., Abcam, Cambridge, MA). All antagonist treatments were performed in the presence of 1 nM hormone (E2) for 1 week.

| Compound | induction of apoptosis (cellular viability) |
| --- | --- |
| CCN1CCC(CCOc2ccc(C3c4ccc(O)cc4CC4(CC4)N3C(=O)c3ccccc3)cc2)C1 (stereo not drawn) [Compound 13] | appear to induce apoptosis |
| CCCN1CCC(COc2ccc(C3c4ccc(O)cc4CC4(CC4)N3C(=O)c3ccccc3)cc2)C1 (stereo not drawn) [Compound 14] | appear to induce apoptosis |
